Laboratory results taken from patent publication US8940748B2, “Iminothiadiazine dioxide compounds as BACE inhibitors, compositions, and their use” (Merck Sharp & Dohme Corp., priority 2009, dated 2015).
One block for each compound: values may come before it.

Assays:
[1] = molecular target: soluble human BACE1 catalytic domain (Homo sapiens (Human), UniProt P56817); test: BACE1 HTRF FRET assay; type: biochemical; details: Ki calculated from IC50 using the Cheng-Prusoff equation; read-out: BACE-1 Ki
Chain of soluble human BACE1 catalytic domain (P56817 75-416): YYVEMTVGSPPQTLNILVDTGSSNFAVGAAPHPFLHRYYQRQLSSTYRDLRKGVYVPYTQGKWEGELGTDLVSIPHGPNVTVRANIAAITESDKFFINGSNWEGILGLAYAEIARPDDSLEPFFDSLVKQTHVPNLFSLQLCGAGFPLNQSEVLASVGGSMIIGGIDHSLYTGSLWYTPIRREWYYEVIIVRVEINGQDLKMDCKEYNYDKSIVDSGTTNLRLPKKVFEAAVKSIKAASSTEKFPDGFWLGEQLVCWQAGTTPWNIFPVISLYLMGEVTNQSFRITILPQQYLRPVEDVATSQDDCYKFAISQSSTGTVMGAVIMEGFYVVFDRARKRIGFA

[2] = molecular target: purified human autoBACE-2 (Homo sapiens (Human), UniProt Q9Y5Z0); test: BACE-2 assay (BACE-HTRF, time-resolved endpoint proteolysis); type: biochemical; details: Ki calculated from IC50 using the Cheng-Prusoff equation
Chain of purified human autoBACE-2 (Q9Y5Z0 63-473 limits assumed): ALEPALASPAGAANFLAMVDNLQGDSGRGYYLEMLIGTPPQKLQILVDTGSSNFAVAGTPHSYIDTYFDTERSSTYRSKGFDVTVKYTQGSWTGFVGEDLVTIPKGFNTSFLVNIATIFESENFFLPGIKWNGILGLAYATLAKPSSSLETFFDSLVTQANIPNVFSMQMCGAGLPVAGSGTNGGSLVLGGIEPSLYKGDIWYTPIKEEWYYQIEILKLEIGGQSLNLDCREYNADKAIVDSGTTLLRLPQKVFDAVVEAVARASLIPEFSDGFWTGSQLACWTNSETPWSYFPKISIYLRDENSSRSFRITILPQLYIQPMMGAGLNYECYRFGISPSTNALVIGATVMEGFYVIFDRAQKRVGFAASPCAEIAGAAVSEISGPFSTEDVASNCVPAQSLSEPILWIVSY
Protocol: Inhibitor IC50s at purified human autoBACE-2 were determined in a time-resolved endpoint proteolysis assay that measures hydrolysis of the QSY7-[sequence]-Eu-amide FRET peptide substrate (BACE-HTRF assay). […] DMSO was present at 5% final concentration in the assay. Following laser excitation of sample wells at 320 nm, the fluorescence signal at 620 nm was collected for 400 ms following a 50 μs delay on a RUBYstar HTRF plate reader (BMG Labtechnologies). Raw RFU data was normalized to maximum (1.0 nM BACE/DMSO) and minimum (no enzyme/DMSO) RFU values. […] The Ki values were calculated from the IC50 using the Cheng-Prusoff equation.

[3] = Solution stability, Example B (50 mM pH 7.4 phosphate buffer, 25° C., LC/MS); type: physicochemical
Protocol: Stock solutions of the tested compounds were prepared by dissolving about 3 mg of each compound in 3 mL of acetonitrile. Standards for test compounds were prepared by diluting 1 mL of the stock solution with an additional 4 mL of acetonitrile. These standards were stored at 4° C. Samples were prepared by diluting 1 mL of the stock solution with 4 mL of 50 mM pH 7.4 phosphate buffer. These samples were stored at 25° C. in the absence of light. Standards and samples were analyzed by LC/MS initially and at day 1, day 4, and day 6.
Mobile phase A: 10 mM pH 5 ammonium acetate buffer:methanol (90:10)
Mobile phase B: 10 mM pH 5 ammonium acetate buffer:methanol (10:90)
Column: Zorbax SB-Phenyl 4.6×50 mm, 1.8 μm
Column temperature: 40° C.
Area % is the integration of peak from HPLC as reported by Waters Empower II software.
In the following study, the solution stability of the compound of Example 47 was measured and compared to that of Compound Y. The compound of Example 47 is an iminothiadiazine dioxide compound of the invention. Compound Y is the corresponding iminopyrimidinone compound. The structures of the compound of Example 47 and of Compound Y are shown below. Studies were performed in pH 7.4 buffer at 25° C.

[4] = test system: endogenous rat Aβ1-40 (Aβ40) in cortex; test: Cortical Aβ40 in rats after oral dosing (Luminex-based immunodetection); type: in vivo; details: rats, 3 h after a 10 mg/kg oral dose, vs vehicle cohort, read-out: Change in rat cortex Aβ40
Protocol: The following procedures were used.
Male CD rats (˜100 g; Crl:CD(SD); Charles River Laboratories, Kingston, N.Y.) were group housed and acclimated to the vivarium for 5-7 days prior to use in a study. Compounds were formulated in 20% hydroxypropyl-β-cyclodextrin and administered orally with a dosing volume of 5 ml/kg for rats. Three h after drug administration, rats were euthanized with excess CO2. The brain was removed from the skull and immediately frozen on dry ice. All tissues were stored at −70° C. until Aβ quantification.
Ab585 was labeled with biotin (b-Ab585) by first dialyzing the antibody sample extensively versus PBS (pH 7.8) to remove impurities, followed by dilution to between 1 and 2 mg/mL protein concentration. EZ-Link Sulfo-NHS-LC-Biotin (Pierce) was dissolved in PBS (pH 7.8) at a concentration of 1 mg/mL immediately prior to use. Ab585 was labeled with EZ-Link Sulfo-NHS-LC-biotin using a 10:1 biotin:antibody ratio by incubation at room temperature for 1 hour. The labeling reaction was quenched by addition of 1.0 M glycine to a final concentration of 0.1 M followed by 10 minute incubation at room temperature. Glycine was removed by extensive dialysis versus PBS.
The antibody was coupled to the beads using the Bio-Plex Amine Coupling Kit (Bio-Rad) as per the manufacturer's recommendations.
Rat cortex Aβ40 levels were measured from guanidine HCl extracts of individual rat cortices using a Luminex-based immunodetection assay. Rat brains were thawed briefly at 37° C. and both mid- and hindbrain regions were removed. The remaining material, consisting primarily of cortex (˜800 mg) was carried through the guanidine extraction procedure. Cortices were added to a 2 ml BioPur tube (Eppendorf) along with a 6.35 mm chrome-coated steel ball and 1.0 ml of sucrose homogenization buffer (20 mM HEPES [pH 7.5], 50 mM KCl, 50 mM sucrose, 2 mM EDTA, 2 mM EGTA supplemented with complete protease inhibitors [Roche, EDTA-free]). Samples were then homogenized by agitation for 1.5 min at 30 cycles/sec in a MM300 tissue mixer (Retsch®). The resulting cortical homogenate was extracted with guanidine-HCl by mixing 67 μl of homogenate with 133 μl of 5 M Guanidine HCl, 50 mM Tris HCl (pH 8.0). To maximize the efficiency of Aβ extraction, samples were vortexed and then sonicated for 2 minutes in an ice bath using an Ultrasonics XL cup horn sonicator at a power setting of 8 (Heat Systems, Inc.). Insoluble material was removed by ultracentrifugation using a using a TLA-55 rotor in a TL-100 benchtop centrifuge (Beckman) at 100,000×g for 30 minutes. The resulting supernatant was then either diluted 1:10 in 5 M guanidine HCl, 0.05 M Tris HCl (pH 8.0) for protein analysis (BCA protein assay, Pierce Biochemicals) or assayed neat for Aβ40 levels. The Luminex rodent Aβ40 assay was performed as follows. First, 96 well filter binding plates (Millipore, catalogue # MSBVN12) were wetted with 100 μl of 1×LAβ40 buffer (0.05 M HEPES [pH 7.5], 0.2% BSA, 0.2% Tween-20, 0.15 M NaCl) by vacuum filtration on a Millipore 96-well manifold. The plate bottom was sealed and 100 μl of 1×LAβ40 buffer was added to each well followed by addition of 50 μl each of G2-10:COOH beads (1000 beads/well) and 50 μl b-Ab585 at 0.5 μg/ml in 1×LAβ40 buffer. Guanidine HCl was added to synthetic rodent Aβ40 standards in order to control for the effect of guanidine in brain extracts on the assay performance. Ten microliters of cortical extract, rodent Aβ40 standards or cortical extract from amyloid precursor protein knockout mice (to define background immunoreactivity) was added to each well. Plates were covered and incubated overnight at 4° C. Following the incubation, wells were cleared by vacuum and washed twice with 100 μl of 1×LAβ40 buffer on a Millipore manifold.

[5] = test system: P-gp; test: Caco-2 bi-directional permeability; type: in vitro ADME; details: human, Caco-2
Protocol: (§1) The bi-directional permeability with efflux potential of selected compounds of the invention vs. otherwise structurally identical iminopyrimidinones (collectively referred to as test compounds, shown in the table below) were assessed using Caco-2 cell line. The Caco-2 cells were maintained in DMEM (Dulbecco's Modified Eagle Medium) containing 10% fetal bovine serum, 1% non-essential amino acids, 2 mM L-glutamine, and 1% penicillin-streptomycin in an incubator at ˜37° C. in an atmosphere of 5% CO2 and about 90% relative humidity. The cell culture medium was changed three times weekly. Caco-2 cell monolayers were grown on polyethylene terephthalate filters using 24-well BD Falcon™ Cell Culture Insert Plates (0.33 cm^2 insert area, 1 μm pore size; BD BioSciences, Bedford, Mass.). The culture medium of the plate was changed every other day until used for the transport experiment (21-28 days post seeding).
(§2) The transport buffer (TM) was Hank's balanced salt solution (HBSS) with 10 mM HEPES and 25 mM glucose (pH 7.4) for dosing and TM with 4% bovine serum albumin for receiver (pH 7.4). The bi-directional permeability of the test compounds were tested at concentrations of 1, 10 and 100 μM was measured in triplicate with 2-hr incubation. The cell monolayer integrity was monitored with pre- and post-experimental trans-epithelial electrical resistance and post-experimental Lucifer Yellow (LY) permeability with 1 hr incubation.
(§3) The apparent permeability, recovery and efflux ratio values were calculated using the following equations:
(§4) where, • dCR/dt: The slope of the accumulative concentration in the receiver compartment versus time incubation (μM·s^−1) • C0hr: Donor concentration (μM) immediately after dosing • CD, final: Donor concentration (μM) at the end of incubation • S: Membrane surface area (cm^2) • VD: Volume of donor compartment (mL) • VR: Volume of receiver compartment (mL) • Papp-BLtoAP: Permeability from basolateral (BL) to apical (AP) transport

[6] = Caco-2 bi-directional permeability; type: in vitro ADME; details: human, Caco-2; permeability apical to basolateral; read-out: Caco-2 AP→BL
Protocol: as §1, §2, §3, §4

[7] = Solution stability, Example A (pH 7.4 phosphate buffer/MeOH, LC/MS); type: physicochemical; details: for degredation: aqueous pH 7.4 buffer containing methanol
Protocol: A 1.05 mg/mL stock solution (5 mL) of Ex. 45 in MeOH was prepared. From the stock solution was taken out 1.25 mL and diluted to 25 mL with the addition of 23.75 mL of 10 mM phosphate buffer (pH 7.4)/MeOH (70/30 v/v). This new solution was split into three. One solution was incubated at 4° C., another incubated at 25° C. and the third incubated at 40° C. Each solution was analyzed by LC/MS after day 1, day 2 and day 6 and compared to a standard calibration curve for Ex. 45.
In the following study, the solution stability of the compound of Example 45 was measured and compared to that of Compound Z. The compound of Example 45 is an iminothiadiazine dioxide compound of the invention. Compound Z is the corresponding iminopyrimidinone compound. The structures of the compound of Example 45 and of Compound Z are shown below. Studies were performed in aqueous pH 7.4 buffer containing methanol at 4° C., 25° C. and 40° C.

[8] = Standard (in acetonitrile, stored at 4° C.)
[9] = pH 7.4, 40° C., last column without time heading

Compound: Cc1cnc(C(=O)Nc2ccc(F)c([C@]3(C)CS(=O)(=O)N(C)C(=N)N3)c2)cn1 [Example 36]
Ki [1]: 10 nM
Ki [2]: 4.85 nM
change in vivo at 10 mg/kg [4]: -25%
efflux ratio at 2 h [5]: 3.3

Compound: COc1cnc(C(=O)Nc2cc(F)c(F)c([C@]3(C)CS(=O)(=O)N(C)C(=N)N3)c2)cn1 [Example 40di]
Ki [1]: 1.05 nM
Ki [2]: 2.15 nM
change in vivo at 10 mg/kg [4]: -38%
efflux ratio at 2 h [5]: 2

Compound: CN1C(=N)N[C@](C)(c2cc(NC(=O)c3ccc(Cl)cn3)ccc2F)CS1(=O)=O [Example 34]
Ki [1]: 0.949 nM
Ki [2]: 0.22 nM
change in vivo at 10 mg/kg [4]: -51%
efflux ratio at 2 h [5]: 3.1

Compound: Cc1ccc(C(=O)Nc2ccc(F)c([C@]3(C)CS(=O)(=O)N(C)C(=N)N3)c2)nc1 [Example 35]
Ki [1]: 3 nM
Ki [2]: 0.45 nM
efflux ratio at 2 h [5]: 2.1

Compound: CN1C(=N)N[C@](C)(c2cc(-c3cccc(C#N)c3)cs2)CC1=O [Compound Z]
degredation ([7]; 4° C., after 1 day): 18.3%
degredation ([7]; 25° C., time not stated): 53.87%
degredation ([7]; 40° C., after 1 day): 79.93%
Assay (Area %) ([7]; pH 7.4, 4° C., 1 day): 69.84 Area %
Assay (Area %), degradation symbol ([7]; pH 7.4, 4° C., 2 days): — ((—) stands for > 20% degradation)
Assay (Area %), degradation symbol ([7]; pH 7.4, 4° C., 6 days): — ((—) stands for > 20% degradation)
Assay (Area %) ([7]; pH 7.4, 4° C., Initial): 88.15 Area %
Assay (Area %), degradation symbol ([7]; pH 7.4, 4° C., last column without time heading): — ((—) stands for > 20% degradation)
Assay (Area %) ([7]; pH 7.4, 25° C., 1 day): 34.28 Area %
Assay (Area %), degradation symbol ([7]; pH 7.4, 25° C., 2 days): — ((—) stands for > 20% degradation)
Assay (Area %), degradation symbol ([7]; pH 7.4, 25° C., 6 days): — ((—) stands for > 20% degradation)
Assay (Area %) ([7]; pH 7.4, 25° C., Initial): 88.15 Area %
Assay (Area %), degradation symbol ([7]; pH 7.4, 25° C., last column without time heading): — ((—) stands for > 20% degradation)
Assay (Area %) ([7]; pH 7.4, 40° C., 1 day): 8.22 Area %
Assay (Area %), degradation symbol ([7]; pH 7.4, 40° C., 2 days): — ((—) stands for > 20% degradation)
Assay (Area %), degradation symbol ([7]; pH 7.4, 40° C., 6 days): — ((—) stands for > 20% degradation)
Assay (Area %) ([7]; pH 7.4, 40° C., Initial): 88.15 Area %
Assay (Area %), degradation symbol [7, 9]: — ((—) stands for > 20% degradation)

Compound: COc1cnc(C(=O)Nc2ccc(F)c([C@]3(C)CS(=O)(=O)N(C)C(=N)N3)c2)cn1 [Example 40ai]
Ki [1]: 1.64 nM
Ki [2]: 1.99 nM
change in vivo at 10 mg/kg [4]: -51%
efflux ratio at 2 h [5]: 1.8

Compound: CN1C(=N)N[C@](C)(c2cc(NC(=O)c3ccc(F)cn3)ccc2F)CS1(=O)=O [Example 25]
change in vivo at 10 mg/kg [4]: -49%

Compound: CN1C(=N)N[C@](C)(c2cc(-c3cccc(C#N)c3)cs2)CS1(=O)=O [Example 45]
Ki [1]: 25.6 nM
efflux ratio at 2 h [5]: 1.4
degredation ([7]; 4° C., after 6 days): 0.93%
degredation ([7]; 25° C., after 6 days): 7.4%
degredation ([7]; 40° C., after 6 days): 30.71%
Assay (Area %) ([7]; pH 7.4, 4° C., 1 day): 99.69 Area %
Assay (Area %) ([7]; pH 7.4, 4° C., 2 days): 99.04 Area %
Assay (Area %) ([7]; pH 7.4, 4° C., 6 days): 98.89 Area %
Assay (Area %) ([7]; pH 7.4, 4° C., Initial): 99.82 Area %
Assay (Area %) ([7]; pH 7.4, 25° C., 1 day): 98.45 Area %
Assay (Area %) ([7]; pH 7.4, 25° C., 2 days): 96.07 Area %
Assay (Area %) ([7]; pH 7.4, 25° C., 6 days): 92.43 Area %
Assay (Area %) ([7]; pH 7.4, 25° C., Initial): 99.82 Area %
Assay (Area %) ([7]; pH 7.4, 40° C., 1 day): 96.32 Area %
Assay (Area %) ([7]; pH 7.4, 40° C., 2 days): 89.70 Area %
Assay (Area %) ([7]; pH 7.4, 40° C., 6 days): 69.11 Area %
Assay (Area %) ([7]; pH 7.4, 40° C., Initial): 99.82 Area %
Assay (Area %), degradation symbol [7, 9]: — ((—) stands for > 20% degradation)

Compound: CN1C(=N)N[C@](C)(c2cc(-c3ccc(F)c(C#N)c3)cs2)CS1(=O)=O [Example 46]
Ki [1]: 46 nM
Ki [2]: 8.23 nM

Further lines, with some results ahead:

Ki [1]: ~6.5 nM
Ki [2]: ~1 nM
Area %, Day 1 (Unknown peak, RRT 1.49) ([3]; Sample at pH 7.4, 25° C.): 1.44 Area %
Area %, Day 1 (parent peak, RRT 1.00) ([3]; Sample at pH 7.4, 25° C.): 98.56 Area %
Area %, Day 4 (Unknown peak, RRT 1.49) ([3]; Sample at pH 7.4, 25° C.): 1.47 Area %
Area %, Day 4 (parent peak, RRT 1.00) ([3]; Sample at pH 7.4, 25° C.): 98.53 Area %
Area %, Day 6 (Unknown peak, RRT 1.49) ([3]; Sample at pH 7.4, 25° C.): 1.47 Area %
Area %, Day 6 (parent peak, RRT 1.00) ([3]; Sample at pH 7.4, 25° C.): 98.53 Area %
Area %, Initial (Unknown peak, RRT 1.49) ([3]; Sample at pH 7.4, 25° C.): 1.45 Area %
Area %, Initial (parent peak, RRT 1.00) ([3]; Sample at pH 7.4, 25° C.): 98.55 Area %
Area %, Day 1 (Unknown peak, RRT 1.49) [3, 8]: 1.45 Area %
Area %, Day 1 (parent peak, RRT 1.00) [3, 8]: 98.55 Area %
Area %, Day 4 (Unknown peak, RRT 1.49) [3, 8]: 1.48 Area %
Area %, Day 4 (parent peak, RRT 1.00) [3, 8]: 98.52 Area %
Area %, Day 6 (Unknown peak, RRT 1.49) [3, 8]: 1.48 Area %
Area %, Day 6 (parent peak, RRT 1.00) [3, 8]: 98.52 Area %
Area %, Initial (Unknown peak, RRT 1.49) [3, 8]: 1.47 Area %
Area %, Initial (parent peak, RRT 1.00) [3, 8]: 98.53 Area %
hydrolysis product ([3]; pH 7.4 buffer at 25° C., after 6 days): 0%
Compound: CC#Cc1cncc(-c2csc([C@]3(C)CS(=O)(=O)N(C)C(=N)N3)c2)c1 [Example 47]

Papp A→B at 2 h [6]: 13.6 ×10⁻⁶ cm/s
efflux ratio at 2 h [5]: 2.6
Compound: CN1C(=N)N[C@](C)(c2cc(-c3ccc(F)c(C#N)c3)cs2)CC1=O [Iminopyrimidinone 46]

Papp A→B at 2 h [6]: 15.3 ×10⁻⁶ cm/s
Compound: CC#Cc1cncc(-c2cc(Cl)c([C@]3(C)CC(=O)N(C)C(=N)N3)s2)c1 [Iminopyrimidinone 52, reference compound]

Papp A→B at 2 h [6]: 1.7 ×10⁻⁶ cm/s
efflux ratio at 2 h [5]: 11.3
Compound: CN1C(=N)N[C@](C)(c2cc(NC(=O)c3ccc(C(F)(F)F)cn3)ccc2F)CC1=O [Iminopyrimidinone 26]
change in vivo at 10 mg/kg [4]: 0%

Papp A→B at 2 h [6]: 1.1 ×10⁻⁶ cm/s
efflux ratio at 2 h [5]: 12.9
Compound: Cc1cnc(C(=O)Nc2ccc(F)c([C@]3(C)CC(=O)N(C)C(=N)N3)c2)cn1 [Iminopyrimidinone 36]

Papp A→B at 2 h [6]: 12.6 ×10⁻⁶ cm/s
Compound: CN1C(=N)N[C@](C)(c2c(F)ccc(NC(=O)c3ccc(F)cn3)c2F)CS1(=O)=O [Example 173]
change in vivo at 10 mg/kg [4]: -27%

Papp A→B at 2 h [6]: 2.2 ×10⁻⁶ cm/s
efflux ratio at 2 h [5]: 10.6
Compound: CN1C(=N)N[C@](C)(c2cc(NC(=O)c3ccc(F)cn3)ccc2F)CC1=O [Iminopyrimidinone 25]
change in vivo at 10 mg/kg [4]: -11%

Papp A→B at 2 h [6]: 2.5 ×10⁻⁶ cm/s
efflux ratio at 2 h [5]: 6.1
Compound: CN1C(=N)N[C@](C)(c2c(F)ccc(NC(=O)c3ccc(F)cn3)c2F)CC1=O [Iminopyrimidinone 173]
change in vivo at 10 mg/kg [4]: -3%

Papp A→B at 2 h [6]: 6.5 ×10⁻⁶ cm/s
efflux ratio at 2 h [5]: 3.2
Compound: COc1cnc(C(=O)Nc2cc(F)c(F)c([C@]3(C)CC(=O)N(C)C(=N)N3)c2)cn1 [Iminopyrimidinone 40di]
change in vivo at 10 mg/kg [4]: 5%

Papp A→B at 2 h [6]: 17.4 ×10⁻⁶ cm/s
efflux ratio at 2 h [5]: 2.6
Compound: CN1C(=N)N[C@](C)(c2cc(-c3cccc(C#N)c3)cs2)CC1=O [Iminopyrimidinone 45]
change in vivo at 10 mg/kg [4]: -5%
